System: 3T3L1 murine adipocyte line
Procedure: For example, a 2% (w/w) chitosan preparation obtained in example 1 (DA: 2%, Mw: 450000 g·mol^−1, Bioxis Pharmaceuticals S.A.S.) is diluted in a saline solution (NaCl at 300 mOsmol·l^−1) containing 1% (w/w) of acetic acid in a well (in 24-well plates) and then distributed over half of the other wells, dried, rinsed with PBS and then with the culture medium before cell seeding (3T3L1 murine adipocyte line ATCC CL-173™). When the cells are at confluence, differentiation is induced by adding a differentiation medium. The cells are then treated with a small dose of oleic acid (OA, 2.5 μM) for 6 hours. The cells are put back in a culture medium without OA until the next day in order to avoid any background noise from the OA. Proliferation is analysed by phase contrast microscopy (×20): the images are taken at various times (2 days and 5 days post seeding), at an identical position for each well. […] The marking is observed in fluorescence microscopy and quantification carried out by imaging. The imaging and the fluorescence quantification are carried out on a real-time imaging station. The controls are fixed before the induction of differentiation (confluence, DO).

## chitosan
  chitosan concentration with toxic effect on the 3T3L1 line: greater than or equal to 2%
  morphology of the cells: aggressive or even toxic medium

From patent publication US20190240379A1, “NOVEL COMPOSITIONS ACTIVE ON ADIPOCYTES” (BIOXIS PHARMACEUTICALS, priority 2016, published 2019)
